According to patent publication US8623392B2, “Allergen inactivating agent” (priority 2007, dated 2014):
Entries after “also recorded” stand apart in the source; their conditions may differ.

Assays:
[1] = target: T1, freeze-dried Cry j1 (Cryptomeria japonica, UniProt P18632); experiment: ELISA of freeze-dried Cry j1 after exposure to chlorine dioxide gas in 100 L-Tedlar bag; format: biochemical, Japanese cedar; conditions: 24 hours
T1 construct: purchased Hayashibara Biochemical Labs., Inc
Experimental: The purified Cry j1 which had been freeze-dried was reacted with chlorine dioxide gas having an average concentration of 0.08 ppm for 24 hours, and measurement was made using ELISA. As a result, 0.08 ppm of chlorine dioxide gas reduced the antigenicity of Cry j1, as compared with the case of air as a control. […] The details will be described below.
In order to examine effect of the chlorine dioxide gas on the freeze-dried Cry j1, […] of the purified Cry j1 adjusted with PBS to the concentration of 10 μg/ml was placed in a […], frozen at −30° C., and freeze-dried overnight using a suction desiccator.
The humidity was controlled using agar, and the generated chlorine dioxide solution was introduced using a syringe into a 100 L-Tedlar bag, so that the concentration therein becomes 0.1 ppm, and air inside the bag was agitated using a crisscross rotor wherein outer diameter of 60 mm×height of 17 mm. Likewise, a bag into which distilled water was introduced was used as a control. The bag was left in an environment of 24° C., and the chlorine dioxide gas concentration inside the bag was measured using a chlorine dioxide gas measuring instrument (Model 4330-SP, Interscan Corporation; measurement range 0 to 1,000 ppb), and when the value was below 0.1 ppm, the generated chlorine dioxide solution was further added to make adjustment. […]

[2] = target: T2, freeze-dried Der fII (Dermatophagoides farinae, UniProt Q00855); experiment: ELISA of freeze-dried Der fII after exposure to chlorine dioxide gas in 100 L-Tedlar bag; format: biochemical, mite; conditions: 24 hours
T2 sequence (Q00855 18-146): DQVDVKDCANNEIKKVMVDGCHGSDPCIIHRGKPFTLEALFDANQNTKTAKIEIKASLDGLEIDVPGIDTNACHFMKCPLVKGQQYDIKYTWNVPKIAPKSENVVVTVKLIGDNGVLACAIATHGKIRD
Experimental: The purified Der fII which had been freeze-dried was reacted with chlorine dioxide gas having a concentration of 0.1 ppm for 24 hours, and measurement was made using ELISA. As a result, 0.1 ppm of chlorine dioxide gas reduced the antigenicity of Der fII, as compared with the case of air as a control. […] The details will be described below.
In order to examine effect of the chlorine dioxide gas on the freeze-dried Der fII, 10 μl of the purified Der fII adjusted with PBS to the concentration of 10 μg/ml was placed in a 0.2-mL tube, frozen at −30° C., and freeze-dried overnight using a suction desiccator.
The humidity was controlled by a saturated salt method. Inside a Futon bag, a Tupperware containing salt or water therein was placed so as to obtain a target humidity, and next day, inside the bag, a 100 L-Tedlar bag containing the freeze-dried Der fII and a hygrometer was placed. A Tedlar bag into which chlorine dioxide was introduced was light-shielded with aluminum foil. […] The bag was left in an environment of 24° C., and the chlorine dioxide gas concentration inside bag was measured using a chlorine dioxide detector tube (No. 23M having a measurement range of 0.1 to 10 ppm, No. 23L having a measurement range of 0.025 to 1.2 ppm, GASTEC Corporation), and when the value was below 0.1 ppm, the generated chlorine dioxide gas was further added to make adjustment. […]

T1 sequence (P18632 22-374): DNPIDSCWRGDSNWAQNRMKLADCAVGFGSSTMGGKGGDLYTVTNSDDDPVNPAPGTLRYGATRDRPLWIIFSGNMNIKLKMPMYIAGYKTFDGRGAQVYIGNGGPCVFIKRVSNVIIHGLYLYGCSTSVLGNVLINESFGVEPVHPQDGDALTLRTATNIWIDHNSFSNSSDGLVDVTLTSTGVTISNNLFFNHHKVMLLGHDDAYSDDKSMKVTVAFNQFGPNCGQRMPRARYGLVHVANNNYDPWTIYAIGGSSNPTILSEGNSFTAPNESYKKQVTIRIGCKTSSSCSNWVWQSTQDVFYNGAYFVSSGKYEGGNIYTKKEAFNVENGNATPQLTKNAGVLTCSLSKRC

[O][Cl+][O-] [chlorine dioxide gas, chlorine dioxide]
antigenicity of freeze-dried Cry j1 at higher relative humidity ([1]; chlorine dioxide gas 0.1 ppm (average 0.08 ppm), humidity increased): further reduced; also recorded: reduced to a larger degree | antigenicity of freeze-dried Cry j1 ([1]; chlorine dioxide gas 0.1 ppm set, 0.08 ppm (80 ppb) on average, 24° C., compared with air control): remarkably reduced | antigenicity of freeze-dried Der fII ([2]; chlorine dioxide gas 0.1 ppm (0.09 ppm on average), 24° C., compared with air control): remarkably reduced | antigenicity of freeze-dried Der fII at higher relative humidity ([2]; chlorine dioxide gas 0.1 ppm, humidity increased): reduced to a larger degree; also recorded: further reduced
